{"source": "paper PMC7153166", "about": "(Elektrophysiologie, 2018)", "origin": "cited, not measured here", "assay_type_in_all_cases": "cell-based", "key": {"[1]": {"target": "T1, P2X2-Rezeptor (Rattus norvegicus, UniProt P49653)", "T1 sequence (P49653 1-472)": "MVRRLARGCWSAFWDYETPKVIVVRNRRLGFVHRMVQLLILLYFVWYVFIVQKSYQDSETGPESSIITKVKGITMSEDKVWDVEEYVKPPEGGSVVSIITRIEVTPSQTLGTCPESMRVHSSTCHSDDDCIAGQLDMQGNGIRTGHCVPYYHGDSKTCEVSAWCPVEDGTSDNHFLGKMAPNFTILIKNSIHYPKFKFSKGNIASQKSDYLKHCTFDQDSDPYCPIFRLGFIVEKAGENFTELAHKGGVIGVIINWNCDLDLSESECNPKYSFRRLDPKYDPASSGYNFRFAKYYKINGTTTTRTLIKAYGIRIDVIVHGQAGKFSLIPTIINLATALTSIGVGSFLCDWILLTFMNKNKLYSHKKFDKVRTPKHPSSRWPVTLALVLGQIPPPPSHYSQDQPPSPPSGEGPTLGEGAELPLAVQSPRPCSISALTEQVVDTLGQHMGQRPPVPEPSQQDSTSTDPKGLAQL", "assay": "two-electrode voltage clamp, Xenopus oocytes", "conditions": "agonist"}, "[2]": {"target": "T2, P2X1-Rezeptor (Rattus norvegicus, UniProt P47824)", "T2 sequence (P47824 1-399)": "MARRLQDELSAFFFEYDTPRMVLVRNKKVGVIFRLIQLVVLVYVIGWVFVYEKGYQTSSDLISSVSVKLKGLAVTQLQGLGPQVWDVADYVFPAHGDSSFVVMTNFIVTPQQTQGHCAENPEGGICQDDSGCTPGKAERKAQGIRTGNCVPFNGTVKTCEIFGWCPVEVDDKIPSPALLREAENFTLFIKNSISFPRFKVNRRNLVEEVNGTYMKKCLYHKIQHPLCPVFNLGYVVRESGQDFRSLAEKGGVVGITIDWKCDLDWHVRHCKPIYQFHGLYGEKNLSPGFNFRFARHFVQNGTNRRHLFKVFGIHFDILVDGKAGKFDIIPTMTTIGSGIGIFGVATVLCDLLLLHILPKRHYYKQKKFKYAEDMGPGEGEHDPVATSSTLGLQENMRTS", "assay": "two-electrode voltage clamp, Xenopus oocytes"}, "[3]": {"target": "3a-Protein (Severe acute respiratory syndrome-related coronavirus, UniProt P59632)", "sequence (P59632 whole entry, looked up)": "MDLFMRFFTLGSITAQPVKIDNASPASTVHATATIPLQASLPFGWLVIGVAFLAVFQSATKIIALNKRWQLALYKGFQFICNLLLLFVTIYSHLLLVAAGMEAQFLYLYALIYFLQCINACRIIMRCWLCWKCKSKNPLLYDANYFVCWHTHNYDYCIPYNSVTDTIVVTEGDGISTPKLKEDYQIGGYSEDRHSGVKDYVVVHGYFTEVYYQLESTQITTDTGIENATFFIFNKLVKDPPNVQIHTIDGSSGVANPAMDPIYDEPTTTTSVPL"}}}
{"smiles": "Nc1ncnc2c1ncn2[C@@H]1O[C@H](COP(=O)(O)OP(=O)(O)OP(=O)(O)O)[C@@H](O)[C@H]1O", "note": "[ATP]", "values": [{"measurement": "EC50", "setting": "[1]", "result": "~30", "unit": "µM"}, {"measurement": "EC50", "setting": "[2]", "result": 0.6, "unit": "µM"}]}
{"smiles": "Cc1cc(O)c2c(c1)C(=O)c1cc(O)cc(O)c1C2=O", "note": "[Emodin, 1,3,8-Trihydroxcy-6-methylanthracen-9,10-dion]", "values": [{"measurement": "IC50", "setting": "[3]", "result": 20, "unit": "µM"}]}
{"smiles": "O=c1c(O[C@@H]2O[C@@H](CO)[C@H](O)[C@H]2O)c(-c2ccc(O)cc2)oc2cc(O)cc(O)c12", "note": "[Juglanin]", "values": [{"measurement": "IC50", "setting": "[3]", "result": "~2", "unit": "µM"}]}
